Reference: paper PMC11420707, “Functional and Immunologic Mapping of Domains of the Reticulocyte-Binding Protein Plasmodium vivax PvRBP2a” (The Journal of Infectious Diseases, 2024)
Residues, ends and D or L forms follow the SMILES beside them. *: point of attachment. Biotin = O=C1N[C@H]2[C@H](CS[C@H]2CCCCC(=O)*)N1

Key:
[1] = test system: P vivax invasion into human reticulocytes; test: Inhibition of P vivax reticulocyte invasion; type: cell-based, Plasmodium vivax; settings: peptide 100 µg/mL, 5 P vivax clinical isolates, parasitemia at 24 hours versus well without peptide
Experimental: • Antibodies: anti-CD98 mouse IgG1 mAb HBJ127 [8] (Absolute Antibody) and anti-human DARC mouse IG1 mAb 2C3 [9] (Absolute Antibody); working concentration, 25 µg/mL • Cluster A or B PvRBP2a peptides: PepLib 25, 41, 49, 52; working concentration, 100 µg/mL • Control PvRBP2a peptides: PepLib 50, 56; working concentration, 100 µg/mL
Fresh/frozen blood isolates of P vivax were matured in vitro and late stages concentrated with MACS LD columns. Purified infected red blood cells were mixed with cord blood–derived CD71+ reticulocytes (sorted with CD71 beads + MACS LS columns). Infected red blood cell–reticulocyte mixtures were each mixed with an antibody/peptide as stated previously. Wells without peptide/antibody served as controls. All groups were cultivated in vitro as described before. Smears were made at the start (H0) to ensure that ring-stage parasitemia was 0% and 24 hours later (H24) to determine parasitemia (10 000 red blood cells counted). Statistically significant differences were identified by 2-tailed paired t test with Shapiro-Wilk normality test, performed in Prism 10.1.2 (GraphPad).

[2] = test system: fresh human reticulocytes; test: Reticulocyte-binding assay (flow cytometry); type: cell-based; settings: 15 µg/mL biotinylated peptide, 37°C 1 hour; for binding to reticulocytes (% of reticulocytes bound): CD71-enriched cord blood reticulocytes, streptavidin-APC and thiazole orange, 2 independent replicates
Experimental: Fresh human cord blood was enriched for reticulocytes with CD71 microbeads and MACS columns (supplementary methods). Reticulocytes were washed twice with cold phosphate-buffered saline, added to 15 µg/mL of peptide solution, and incubated at 37°C for 1 hour. Reticulocytes were then stained with streptavidin-APC and thiazole orange at 37°C for 1 hour, washed, and acquired on a flow cytometer.
Reticulocytes were enriched from the human cord blood through the selection of CD71+ reticulocytes, using human CD71 microbeads (Miltenyi Biotec, clone AC108.1). Around 1-2ml of blood at 50% haematocrit in PBS was passed through a LS column. After two washing steps using PBS, the reticulocytes were stained with reticulocyte stain (Sigma Aldrich New Methylene Blue) and viewed under the microscope to ensure >80% purity of reticulocytes after selection.

[3] = molecular target: soluble recombinant CD98 protein (Homo sapiens, UniProt P08195); test: biochemical
Experimental: PvRBP2a epitopes for reticulocyte and CD98 binding. […] Reticulocytes were blocked with the polyclonal rabbit anti-CD98 antibody (KE020) or a rabbit isotype control antibody for 15 minutes before staining with biotinylated peptide candidates and detection with streptavidin-APC. Reticulocytes were distinguished from normocytes via thiazole orange staining. […] (B) Candidate binding peptides were tested for direct binding to CD98 via biolayer interferometry. 2µM biotinylated peptides were loaded onto streptavidin-coated sensors, which was immersed in a solution of 200nM CD98 to assess binding. (C) Peptides with detectable binding in the initial binding screen were further analyzed for their binding kinetics to CD98 via biolayer interferometry, with 3 independent replicates. The mean and standard error for dissociation constant (KD), on-rate (ka) and off-rate (kd) are given.
Binding sensorgrams were collected on the Octet Red 96e system. Fresh streptavidin sensors were used without any regeneration step. Streptavidin sensor, without biotinylated peptide loading, but with maximum concentration of non-biotinylated CD98 was used as the reference. Kinetic binding assays were performed using Octet Data Acquisition version 10.0.1.3 at 37°C with orbital shaking speed of 1,000 rpm. The assay was carried out in PBS buffer supplemented with 0.05% Tween-20 and 1mg/mL BSA (PBST/BSA). For initial screening, the biosensor was sequentially dipped into wells containing 200µL of solution each: i) baseline, PBST/BSA (30 s), ii) loading, 2µM biotinylated peptide fragment or vehicle control (VC) (5 min), iii) washing, PBST/BSA (30 s), iv) blocking, 25µM biocytin (5 min) to minimize non-specific binding of CD98, v) washing, PBST/BSA (30 s), vi) association, 200 nM non-biotinylated CD98 (30 min) and vii) dissociation, PBST/BSA (15 min).

[4] = molecular target: PepLib_21 (PvRBP2a_(183-200)) (Plasmodium vivax); test: BLI; biotinylated peptides (2 µM) loaded onto streptavidin-coated sensors, immersed in a solution of 200nM CD98
[5] = molecular target: PepLib_49 (PvRBP2a_(407-424)) (Plasmodium vivax); test: as above
[6] = molecular target: PepLib_36 (PvRBP2a_(303-320)) (Plasmodium vivax); test: as above
[7] = molecular target: PepLib_40 (PvRBP2a_(335-352)) (Plasmodium vivax); test: as above
[8] = test system: sera from donors infected with P vivax; test: ELISA of peptide antigenicity against donor sera; type: binding, human; settings: for antigenicity against the seropositive sera mix: individual peptides, pooled sera of 20 P vivax-infected donors 1:267; for antigenic in seropositive cases (cases/donors): individual seropositive sera 1:1000, 20 donors
Excerpt: We next sought to identify the immunodominant epitopes within the PvRBP2a23-767 CD98-binding domain. Groups of 5 adjacent peptides each were pooled and examined for antigenicity against a mix of sera from 20 donors infected with P vivax (positive by blood smear microscopy) via enzyme-linked immunosorbent assay (Figure 2A). Binding against at least 15 negative donors (non–P vivax exposed) was also examined to control for nonspecific binding. […] To confirm their antigenicity, these peptides were then examined against individual seropositive or seronegative sera. PepLib 3 and PepLib 53 were antigenic in a minority of seropositive cases (7/20 and 2/20, respectively; Supplementary Figure 3B), whereas PepLib 52 was antigenic in most seropositive cases (18/20; Figure 2B). Thus, we identified PepLib 52 (PvRBP2a431-448) as the most reactive linear B-cell epitope in the CD98-binding region of PvRBP2a.
Figure 2. Identification of antigenic and functional linear epitopes of PvRBP2a. A, Peptides were pooled into groups of 5 and coated on streptavidin plates. Pooled sera were added from donors infected with Plasmodium vivax. Following washing, binding of peptides to donor sera was quantified with an anti-human horseradish peroxidase secondary antibody. The baseline was determined to be the mean + 3 SD of the reactivity of the seronegative sample pool to all peptide pools, and peptide pools showing a greater optical density (OD) value were deemed immunoreactive. B, The antigenicity of the antigenic peptide hit, PepLib_52, was confirmed by plasma from 20 donors who were seropositive and 22 who were seronegative. C, The effect of PvRBP2a-derived linear epitope peptides on P vivax invasion was examined on 5 P vivax clinical isolates. Selected CD98-binding PvRBP2a peptide candidates that were in cluster A (PepLib_25, PepLib_49) or cluster B/immunodominant (PepLib_41, PepLib_52), as well as negative control peptides (PepLib_50, PepLib_56) and positive control monoclonal antibodies (anti-Duffy 2C3, anti-CD98 HBJ127), were tested for their ability to inhibit P vivax invasion into reticulocytes. One well without addition of peptide or antibody served as a control for measurement of baseline reinvasion level. *P < .05 by 2-tailed t test with Shapiro-Wilk normality test.
Streptavidin-coated plates (Pierce) were blocked with 1% casein/1% BSA in 0.1% PBST overnight at 4°C, then coated with blocked with PvRBP2a-derived biotinylated peptides at 1:1000 dilution (approximately 15ug/ml) in 0.2% casein/0.2% BSA at room temperature for 1 hour. Pooled or individual donor sera was then applied at 1:267 (pooled) or 1:1000 (individual) dilution in 0.2% casein/0.2% BSA at room temperature for 1 hour, followed by secondary goat […] IgG-HRP at 1:1000 dilution in 0.1% casein/0.1% BSA at room temperature for 1 hour, then TMB substrate (Surmodics, BioFX® TMB One Component HRP Microwell Substrate) incubation for 5 minutes.

Chain of soluble recombinant CD98 protein (P08195 218-630): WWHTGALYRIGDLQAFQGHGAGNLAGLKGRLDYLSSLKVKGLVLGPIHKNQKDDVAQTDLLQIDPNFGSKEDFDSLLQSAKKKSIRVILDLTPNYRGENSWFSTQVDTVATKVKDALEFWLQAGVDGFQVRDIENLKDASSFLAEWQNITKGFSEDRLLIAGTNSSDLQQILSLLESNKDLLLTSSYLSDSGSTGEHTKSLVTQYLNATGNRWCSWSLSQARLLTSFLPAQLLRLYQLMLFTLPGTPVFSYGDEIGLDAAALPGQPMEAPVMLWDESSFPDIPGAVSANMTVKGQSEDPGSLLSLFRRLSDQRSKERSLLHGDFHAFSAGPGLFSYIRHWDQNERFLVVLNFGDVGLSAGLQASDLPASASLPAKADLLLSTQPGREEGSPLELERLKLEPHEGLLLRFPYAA

With “TLMLKVKQEIDNNVTISA [PepLib_41, biotinylated 18-mer of the PvRBP2a23-767 peptide library]” the “inhibition of parasite invasion into reticulocytes, mean” value (from here on “inhibition”) [1] was −1.1% and the “binding to reticulocytes (% of reticulocytes bound)” value [2] was no less than 10%.

`CC(C)C[C@H](NC(=O)[C@H](CO)NC(=O)[C@H](Cc1ccccc1)NC(=O)[C@H](CCCCN)NC(=O)[C@H](Cc1ccc(O)cc1)NC(=O)[C@@H](NC(=O)[C@H](C)NC(=O)[C@H](Cc1ccc(O)cc1)NC(=O)[C@H](Cc1ccccc1)NC(=O)[C@H](CC(N)=O)NC(=O)[C@H](C)NC(=O)[C@H](CO)NC(=O)[C@H](CC(=O)O)NC(=O)[C@H](Cc1ccccc1)NC(=O)[C@H](Cc1ccc(O)cc1)NC(=O)[C@H](CC(C)C)NC(=O)[C@H](CCCCN)NC(=O)[C@H](CCCCN)NC(=O)CNC(=O)[C@H](CO)NC(=O)CNC(=O)[C@H](CO)NC(=O)CCCC[C@@H]1SC[C@@H]2NC(=O)N[C@@H]21)[C@@H](C)O)C(=O)O` [PepLib_49] (Biotin-SGSGKKLYFDSANFYATYKFSL-OH) was tested, and the Kd [3] was 90.3 nM.

With “PLMSSIQNQINSCVPKKA [PepLib_25, biotinylated 18-mer of the PvRBP2a23-767 peptide library]” the “inhibition” value [1] was 49.6% and the “binding to reticulocytes (% of reticulocytes bound)” value [2] was no less than 10%.

For `CC[C@H](C)[C@H](NC(=O)[C@H](CCC(=O)O)NC(=O)[C@H](C)NC(=O)[C@H](Cc1ccccc1)NC(=O)[C@H](Cc1ccc(O)cc1)NC(=O)[C@H](CC(N)=O)NC(=O)[C@H](CCSC)NC(=O)[C@H](CCC(N)=O)NC(=O)[C@@H](NC(=O)CNC(=O)[C@H](CO)NC(=O)CNC(=O)[C@H](CO)NC(=O)CCCC[C@@H]1SC[C@@H]2NC(=O)N[C@@H]21)C(C)C)C(=O)N[C@@H](CCCCN)C(=O)N[C@@H](Cc1ccc(O)cc1)C(=O)N[C@@H](Cc1ccc(O)cc1)C(=O)N[C@H](C(=O)N[C@H](C(=O)N[C@@H](Cc1ccc(O)cc1)C(=O)N[C@@H](Cc1c[nH]cn1)C(=O)N[C@@H](Cc1ccc(O)cc1)C(=O)N[C@@H](CCC(=O)O)C(=O)O)[C@@H](C)O)[C@@H](C)CC` [PepLib_21] (Biotin-SGSGVQMNYFAEIKYYITYHYE-OH), the Kd [3] was 54.9 nM.

With “LYFISKSESMISEFEDTF [PepLib_56, biotinylated 18-mer of the PvRBP2a23-767 peptide library; negative control peptide]” the “inhibition” value [1] was 50% and the “binding to reticulocytes (in words)” value [2] was “do not show binding to reticulocytes”.

With “soluble recombinant CD98 protein (from UniProt P08195 1-529) (receptor)” the Kd [4] was 54.9 nM, the Kd [5] was 90.3 nM and the Kd [6] was 47.5 nM. The Kd [7] was 70 nM.

“TAALKEKGKLLANLYNKL [PepLib_52, biotinylated 18-mer of the PvRBP2a23-767 peptide library]” was tested, and the “inhibition” value [1] was 60.2%, the “binding to reticulocytes (in words)” value [2] was “did not bind directly to reticulocytes” and the “antigenicity against the seropositive sera mix” value (“antigenicity” for short) [8] was “showed antigenicity”. For the same compound, the “antigenic in seropositive cases (cases/donors)” value (“antigenic … (cases/donors)” for short) [8] was 18/20.

With `CC[C@H](C)[C@H](NC(=O)[C@H](CCC(=O)O)NC(=O)[C@H](Cc1ccc(O)cc1)NC(=O)[C@@H](NC(=O)[C@H](CC(=O)O)NC(=O)[C@@H](NC(=O)[C@H](CCC(=O)O)NC(=O)[C@H](CS)NC(=O)CNC(=O)[C@H](CO)NC(=O)CNC(=O)[C@H](CO)NC(=O)CCCC[C@@H]1SC[C@@H]2NC(=O)N[C@@H]21)[C@@H](C)O)[C@@H](C)O)C(=O)N[C@@H](CCSC)C(=O)N[C@@H](CC(C)C)C(=O)N[C@@H](CCC(=O)O)C(=O)N[C@H](C(=O)N[C@@H](Cc1ccc(O)cc1)C(=O)N[C@H](C(=O)N[C@@H](CCC(=O)O)C(=O)N[C@@H](CCCNC(=N)N)C(=O)N[C@H](C(=O)N[C@@H](CCCCN)C(=O)O)C(C)C)C(C)C)[C@@H](C)CC` [PepLib_36] (Biotin-SGSGCETDTYEIMLEIYVERVK-OH) the Kd [3] was 47.5 nM.

For “YVNYLSTLKASLQLGVTL [PepLib_39, biotinylated 18-mer of the PvRBP2a23-767 peptide library]”, the “binding to reticulocytes (% of reticulocytes bound)” value [2] was no less than 10%.

For `CC[C@H](C)[C@H](NC(=O)[C@H](CCC(=O)O)NC(=O)[C@H](CCC(N)=O)NC(=O)[C@H](CCCCN)NC(=O)[C@@H](NC(=O)[C@H](CCCCN)NC(=O)[C@H](CC(C)C)NC(=O)[C@H](CCSC)NC(=O)[C@H](CC(C)C)NC(=O)[C@@H](NC(=O)[C@@H](NC(=O)CNC(=O)[C@H](CC(C)C)NC(=O)[C@H](CCC(N)=O)NC(=O)[C@H](CC(C)C)NC(=O)[C@H](CO)NC(=O)[C@H](C)NC(=O)[C@H](CCCCN)NC(=O)CNC(=O)[C@H](CO)NC(=O)CNC(=O)[C@H](CO)NC(=O)CCCC[C@@H]1SC[C@@H]2NC(=O)N[C@@H]21)C(C)C)[C@@H](C)O)C(C)C)C(=O)O` [PepLib_40] (Biotin-SGSGKASLQLGVTLMLKVKQEI-OH), the Kd [3] was 70 nM.

With “ADYARYSNLQIIDIKSKY [PepLib_60, biotinylated 18-mer of the PvRBP2a23-767 peptide library]” the “binding to reticulocytes (% of reticulocytes bound)” value [2] was no less than 10%.

With “NFYATYKFSLKRADTTTA [PepLib_50, biotinylated 18-mer of the PvRBP2a23-767 peptide library; negative control peptide]” the “inhibition” value [1] was 10.4% and the “binding to reticulocytes (in words)” value [2] was “do not show binding to reticulocytes”.

“WPLQDSLNESDKFEYTNG [PepLib_3, biotinylated 18-mer of the PvRBP2a23-767 peptide library]” was tested, and the “antigenicity” value [8] was “showed antigenicity” and the “antigenic … (cases/donors)” value [8] was 7/20.

For “KLLANLYNKLITYVSEKI [PepLib_53, biotinylated 18-mer of the PvRBP2a23-767 peptide library]”, the “binding to reticulocytes (% of reticulocytes bound)” value [2] was no less than 10%, the “antigenicity” value [8] was “showed antigenicity” and the “antigenic … (cases/donors)” value [8] was 2/20.
